PMC12114947, “Evaluation of Violacein Metabolic Stability and Metabolite Identification in Human, Mouse, and Rat Liver Microsomes” (Pharmaceutics, 2025)

Test: In vitro metabolic stability in rat liver microsomes
Format: in vitro ADME
Procedure: After removal, a pool consisting of livers from five naïve male rats and five C57BL male mice was immediately placed in a 50 mM Tris-HCl buffer, pH 7.4, containing 150 mM KCl. The livers were diced with scissors and washed three times with buffer, followed by homogenization with 20 mL of buffer in a Potter-type homogenizer (three cycles, with each cycle comprising three grindings of 1 min each at 1000 rpm). The homogenate was centrifuged at 10,000× g for 15 min at 4 °C. The resulting supernatant was then ultracentrifuged at 100,000× g for 60 min at 4 °C to obtain the microsomal pellet, which was resuspended in 50 mM HEPES-HCl buffer, pH 7.4, containing 20% glycerol and 1 mM EDTA.
The metabolic stability of volacein was assessed as described by Godoi et al. and Antunes et al.. Aliquots (4 µL) of 100 µM violacein working solution and 96 µL of the NADPH-regenerating system, containing 1.1 mM NADP^+, 10 mM glucose-6-phosphate, 1 U/mL glucose-6-phosphate dehydrogenase, 5 mM sodium citrate, and 66 mM magnesium chloride in 100 mM phosphate buffer, pH 7.4, were transferred to propylene tubes and pre-incubated for 5 min in an MTC 100 thermo shaker incubator (Miulab, Zhejiang, China) at 300 rpm and 37 °C. Subsequently, the metabolic reactions were initiated by adding 100 μL of microsomal proteins from HLMs, RLMs, and MLMs at a concentration of 2 mg/mL to the pre-incubated shaking tubes, resulting in final concentrations of 2 μM for violacein and 1 mg/mL for microsomal proteins. In this experiment, seven incubation times were planned for each species (0, 3, 5, 15, 30, 60, and 120 min), in triplicate. At each time interval, the reactions were stopped by adding 400 μL of ice-cold acetonitrile spiked with 10 µM omeprazole (IS) to each tube. Finally, the samples were vortexed for 5 min in a BenchMixer^TM XL (Benchmark, NJ, USA) and centrifuged at 12,000× g for 15 min at 4 °C (Hettich® Universal 320 R, Tuttlingen, Germany). The supernatants were transferred to a 96-well plate and 8 μL was injected into the LC-MS/MS system (see Section 2.3).
All incubations were performed simultaneously with positive and negative controls. The positive controls were prepared by incubating dapaconazole at the same conditions as violacein (final concentrations: 2 μM) and its metabolic stability was compared with previous studies. Similarly, the negative controls were prepared by incubating violacein in buffer solution, in the absence of microsome and cofactor solutions.
Violacein was analyzed using LC-MS/MS (LC-QQQ MS, LCMS8045, Shimadzu, Kyoto, Japan). Chromatographic separation was achieved on a Raptor^TM Biphenyl column (2.1 × 100 mm, 2.7 μm) at 40 °C. The mobile phases consisted of water (mobile phase A) and methanol (mobile phase B), both containing 2 mM ammonium formate and 0.1% (v/v) formic acid. A flow rate of 0.3 mL/min was used with an elution gradient starting at 20% mobile phase B and holding for 0.2 min, followed by a linear increase to 95% mobile phase B over 2 min that was then maintained for 1 min, with a return to the initial condition in 0.2 min. The total chromatographic run time was 5 min.
In vitro t1/2 was calculated using to the following equation [60, 61]:(1) t1/2=ln(2)/k where k is the slope of the log-linear regression graph of the percentage of drug remaining as a function of time.
CLint, in vitro was calculated using to the following equation [60, 61]:(2) CLint, in vitro=0.693/t1/2×Vincubation/mmicrosomes where Vincubation indicates the volume of the incubation in μL and mmicrosomes indicates the mass of microsomal proteins added to the incubation solution in mg. […]

- CLint, in vitro (RLMs): 38.41 µL/min/mg
- Ln Z (RLMs, time 0 min): 4.605
- Z (%), remaining percentage of violacein (RLMs, time 0 min): 100%
- Ln Z (RLMs, time 3 min): 4.495
- Z (%), remaining percentage of violacein (RLMs, time 3 min): 90%
- Ln Z (RLMs, time 5 min): 4.101
- Z (%), remaining percentage of violacein (RLMs, time 5 min): 60%
- Ln Z (RLMs, time 15 min): 3.832
- Z (%), remaining percentage of violacein (RLMs, time 15 min): 46%
- Ln Z (RLMs, time 30 min): 3.371
- Z (%), remaining percentage of violacein (RLMs, time 30 min): 29%
- Ln Z (RLMs, time 60 min): 2.549
- Z (%), remaining percentage of violacein (RLMs, time 60 min): 13%
- Ln Z (RLMs, time 120 min): 1.899
- Z (%), remaining percentage of violacein (RLMs, time 120 min): 7%
- microsomal CLint at 2 µM (male, rat, rat liver microsomes, pH 7.4, RLMs): 38.4 µL/min/mg
- CLint scaled at 2 µM (male, rat, rat liver microsomes, pH 7.4, rat, extrapolated from CLint, in vitro by allometric scaling, read-out: CLint, in vivo): 5.62 L/h/kg
- half-life at 2 µM (male, rat, rat liver microsomes, pH 7.4, RLMs, 2 μM violacein, 1 mg/mL microsomal protein, NADPH-regenerating system, 37 °C, n = 3, read-out: In vitro elimination half-life (t1/2)): 36 min
- CLint, in vivo (rat, extrapolated from CLint, in vitro by allometric scaling): 5.623 L/h/kg
SMILES: O=C1NC(c2c[nH]c3ccc(O)cc23)=C/C1=C1\C(=O)Nc2ccccc21 [violacein]
- Slope (k), metabolism rate constant (RLMs, ln remaining % vs incubation time): y = −0.0192x + 4.0344 r^2 = 0.9459 Slope (k) = 0.0192
